# Data published in patent publication US20140296143A1, “Angiotensin-(1-7) As A Chemoprevention Agent” (Wake Forest Innovations, priority 2008, published 2014).
# Columns and labels:
# [1] = tested on: ZR-75-1 breast cancer cells; settings: U.S. Pat. No. 7,375,073; cited from earlier work
# [2] = tested on: SK-MES-1 lung cancer cells; type: cell-based, human
# Protocol: (§1) Unless otherwise stated, cells were grown in DMEM with 10% fetal bovine serum (FBS), 100 μg/mL penicillin and 100 units/mL streptomycin in a humidified 37° C. incubator gassed with 5% CO2 and 95% room air. Cells were grown to subconfluence in either 24-well cluster plates or 100 mm dishes and made quiescent by treatment for 48 h with serum-depleted growth media, prior to the experiments outlined below to measure cell growth (^3H-thymidine incorporation), cell signaling or apoptosis.
# A549 lung cancer cells = assay: Serum-stimulated ^3H-thymidine incorporation, A549; type: cell-based, human; settings: A549, 1% FBS, daily addition of 100 nM
# Protocol: as §1
# [3] = tested on: ZR-75-1 breast cancer cells; type: cell-based, human
# Protocol: Unless otherwise stated, cells were grown in DMEM with 10% fetal bovine serum (FBS), […] in a humidified 37° C. incubator gassed with 5% CO2 and 95% room air. Cells were grown to subconfluence in either 24-well cluster plates or 100 mm dishes and made quiescent by treatment for 48 h with serum-depleted growth media, prior to the experiments outlined below to measure cell growth (^3H-thymidine incorporation), cell signaling or apoptosis.
# […] Subsequently, the cell monolayer was washed with cold phosphate-buffered saline (PBS; 50 mM NaPO4, 120 mM NaCl, pH=7.2). The adherent cells were precipitated with cold 10% TCA (4° C. for 30 min) and dissolved in 0.2% SDS in 0.1 N NaOH. Incorporated ^3H-thymidine was determined by liquid scintillation spectrometry, as previously described (Freeman, E. J. et al., Hypertension, 1996, 28:104-108). Growth inhibition was defined as a reduction in the amount of ^3H-thymidine incorporation as compared to the mitogen-stimulated controls.
# [4] = tested on: MAP kinase kinase 5 (MEK5); assay: MEK5 expression in SK-LU-1 cells by RT-PCR and Western analysis; type: cell-based, human; settings: SK-LU-1, 1% serum, 10 nM, 4 and 8 h
# Protocol: RNA, isolated from cells or tissue, using the TRIzol reagent (GIBCO Invitrogen, Carlsbad, Calif.), was subjected to reverse transcriptase/real-time polymerase chain reaction as previously described (Tallant et al., Am. J. Physiol. Heart Circ. Physiol., 2005, 289:1560-1566). All reactions were performed in triplicate and 18S ribosomal RNA, amplified using the TaqMan Ribosomal RNA Control Kit (Applied Biosystems), served as an internal control. The results were quantified as Ct values, where Ct is defined as the threshold cycle of PCR at which amplified product is first detected, and defined as relative gene expression (the ratio of target/control). For RT-PCR, total RNA was isolated using the Atlas Pure Total RNA Labeling System (Clontech Laboratories, Inc). The RNA concentration was quantified by UV spectroscopy and any degradation assessed by ethidium bromide staining intensity of 28S and 18S ribosomal RNA following agarose gel electrophoresis. […] Following PCR, the amplification products were separated by polyacrylamide gel electrophoresis, visualized by autoradiography, and analyzed using the MCID imaging system.
# Proteins were separated electrophoretically on SDS polyacrylamide gels, transferred to polyvinyl membranes, and incubated with primary antibodies to proteins of interest. […] The density of each immunoreactive product was quantified using the MCID imaging system. […]
# [5] = adjuvant therapy for cytopenia during chemotherapy; Rodgers et al., 2005; cited from earlier work
# [6] = tested on: poly(ADP-ribose) polymerase (PARP); assay: Cleaved PARP (caspase-3 cleavage product) in serum-stimulated SK-LU-1 cells; type: cell-based, human; settings: SK-LU-1, 10 nM, 4 to 8 hour treatment
# Protocol: Proteins were separated electrophoretically on SDS polyacrylamide gels, transferred to polyvinyl membranes, and incubated with primary antibodies to proteins of interest. Appropriate horseradish peroxidase (HRP)-conjugated second antibodies were added and immunoreactive products visualized using the enhanced chemoluminescence reagents from Amersham. The density of each immunoreactive product was quantified using the MCID imaging system. Antibodies to proteins that participate in cell signaling, apopotosis, and regulation of the cell cycle are commercially available from a variety of sources.
# Since caspase-3 is activated during apoptosis, an increase in the generation of its […] can be a measure of apoptosis.
compound,measurement,setting,value
"CC[C@H](C)[C@H](NC(=O)[C@H](Cc1ccc(O)cc1)NC(=O)[C@@H](NC(=O)[C@H](CCCNC(=N)N)NC(=O)[C@@H](N)CC(=O)O)C(C)C)C(=O)N[C@@H](Cc1c[nH]cn1)C(=O)N1CCC[C@H]1C(=O)O [Ang-(1-7), Asp-Arg-Val-Tyr-Ile-His-Pro]",inhibition of PDGF- or EGF-stimulated ^3H-thymidine incorporation,[1],at least 50%
same,IC50,[2]; 48 h,0.4 nM
same,^3H-thymidine incorporation over time of treatment,"[2]; SK-MES-1, 1% FBS, daily addition of 100 nM",progressively reduced
same,^3H-thymidine incorporation over time of treatment,A549 lung cancer cells,progressively reduced
same,IC50,[3]; 48 h,0.02 nM
same,maximal inhibition,[3]; ZR-75-1,37.2±6.1
same,^3H-thymidine incorporation over time of treatment,"[3]; ZR-75-1, 1% FBS, daily addition of 100 nM",progressively reduced
same,MEK5 mRNA and protein,[4],reduced
same,adverse side effects in patients,[5],no adverse side effects
same,amount of cleaved PARP,[6],increase
